Experimental data as given in ChEMBL document CHEMBL1201862, “PubChem BioAssay data set” (2004).
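Cultured in 96-well plates, cells were exposed to test compound for 48 hours across five concentrations. Abbreviation: GI50, concentration required for 50% inhibition of growth.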 Calls of active or inactive are those of the source. No stated cut-off is given here; in the data, active = GI50 up to about 1.1 µM and inactive = higher.

Experiments:
Test in all cases: growth of human tumour cells (NCI), 48 h
[1] = system: 786-0
[2] = system: A498
[3] = system: A549
[4] = system: ACHN
[5] = system: BT-549
[6] = system: CCRF-CEM
[7] = system: COLO 205
[8] = system: DU-145
[9] = system: EKVX
[10] = system: HCC 2998
[11] = system: HCT-116
[12] = system: HCT-15
[13] = system: HL-60
[14] = system: HOP-62
[15] = system: HOP-92
[16] = system: HT-29
[17] = system: Hs-578T
[18] = system: IGROV-1
[19] = system: K562
[20] = system: KM12
[21] = system: M14
[22] = system: MCF7
[23] = system: MDA-MB-231
[24] = system: MDA-MB-435
[25] = system: MDA-N
[26] = system: MOLT-4
[27] = system: Malme-3M
[28] = system: NCI-H226
[29] = system: NCI-H23
[30] = system: NCI-H460
[31] = system: NCI-H522
[32] = system: NCI/ADR-RES
[33] = system: OVCAR-3
[34] = system: OVCAR-4
[35] = system: OVCAR-5
[36] = system: OVCAR-8
[37] = system: PC-3
[38] = system: RPMI-8226
[39] = system: RXF 393
[40] = system: SF-268
[41] = system: SF-295
[42] = system: SF-539
[43] = system: SK-MEL-28
[44] = system: SK-MEL-2
[45] = system: SK-MEL-5
[46] = system: SK-OV-3
[47] = system: SN12C
[48] = system: SNB-19
[49] = system: SNB-75
[50] = system: SW-620
[51] = system: T47D
[52] = system: U-251
[53] = system: UACC-62
[54] = system: UO-31
[55] = system: CAKI-1
[56] = system: LOX IMVI
[57] = system: SR
[58] = system: TK-10
[59] = system: UACC-257

Nc1ccc2nc3ccc(=O)cc-3n(-c3ccccc3)c2c1
GI50 [1]: 35.8 µM (inactive)
GI50 [2]: 32.8 µM (inactive)
GI50 [3]: > 100 µM (inactive)
GI50 [4]: > 100 µM (inactive)
GI50 [5]: 73.8 µM (inactive)
GI50 [6]: 62.8 µM (inactive)
GI50 [7]: 41 µM (inactive)
GI50 [8]: > 100 µM (inactive)
GI50 [9]: > 100 µM (inactive)
GI50 [10]: > 100 µM (inactive)
GI50 [11]: 34.4 µM (inactive)
GI50 [12]: > 100 µM
GI50 [13]: 59 µM (inactive)
GI50 [14]: 30.5 µM (inactive)
GI50 [15]: > 100 µM (inactive)
GI50 [16]: > 100 µM (inactive)
GI50 [17]: 75.9 µM (inactive)
GI50 [18]: 45.5 µM (inactive)
GI50 [19]: > 100 µM (inactive)
GI50 [20]: 7.18 µM (inactive)
GI50 [21]: > 100 µM (inactive)
GI50 [22]: 93.3 µM (inactive)
GI50 [23]: 38.7 µM (inactive)
GI50 [24]: 66.7 µM (inactive)
GI50 [25]: > 100 µM (inactive)
GI50 [26]: > 100 µM (inactive)
GI50 [27]: > 100 µM (inactive)
GI50 [28]: 67.9 µM (inactive)
GI50 [29]: > 100 µM (inactive)
GI50 [30]: > 100 µM (inactive)
GI50 [31]: 38.1 µM (inactive)
GI50 [32]: > 100 µM (inactive)
GI50 [33]: 31.8 µM (inactive)
GI50 [34]: > 100 µM (inactive)
GI50 [35]: > 100 µM (inactive)
GI50 [36]: > 100 µM (inactive)
GI50 [37]: 91.4 µM (inactive)
GI50 [38]: 39.5 µM (inactive)
GI50 [39]: 59.8 µM (inactive)
GI50 [40]: 58.2 µM (inactive)
GI50 [41]: > 100 µM (inactive)
GI50 [42]: 31.6 µM (inactive)
GI50 [43]: > 100 µM (inactive)
GI50 [44]: > 100 µM (inactive)
GI50 [45]: > 100 µM (inactive)
GI50 [46]: > 100 µM (inactive)
GI50 [47]: > 100 µM (inactive)
GI50 [48]: > 100 µM (inactive)
GI50 [49]: 28.2 µM (inactive)
GI50 [50]: > 100 µM (inactive)
GI50 [51]: > 100 µM (inactive)
GI50 [52]: 86.3 µM (inactive)
GI50 [53]: > 100 µM (inactive)
GI50 [54]: 78.9 µM (inactive)

Cc1ccc(S(=O)(=O)NCCN(CCNS(=O)(=O)c2ccc(C)cc2)S(=O)(=O)c2ccc(C)cc2)cc1
GI50 [1]: 43.7 µM (inactive)
GI50 [2]: > 100 µM (inactive)
GI50 [3]: 25.7 µM (inactive)
GI50 [4]: 60 µM (inactive)
GI50 [5]: > 100 µM (inactive)
GI50 [55]: > 100 µM (inactive)
GI50 [6]: > 100 µM (inactive)
GI50 [7]: > 100 µM (inactive)
GI50 [8]: > 100 µM (inactive)
GI50 [9]: 85.1 µM (inactive)
GI50 [10]: > 100 µM (inactive)
GI50 [11]: > 100 µM (inactive)
GI50 [12]: > 100 µM
GI50 [14]: 47.4 µM (inactive)
GI50 [16]: > 100 µM (inactive)
GI50 [17]: 22.9 µM (inactive)
GI50 [18]: 84.1 µM (inactive)
GI50 [19]: > 100 µM (inactive)
GI50 [20]: > 100 µM (inactive)
GI50 [56]: 40.1 µM (inactive)
GI50 [21]: > 100 µM (inactive)
GI50 [22]: 81.7 µM (inactive)
GI50 [23]: > 100 µM (inactive)
GI50 [24]: 30.8 µM (inactive)
GI50 [25]: > 100 µM (inactive)
GI50 [26]: > 100 µM (inactive)
GI50 [27]: 15.4 µM (inactive)
GI50 [29]: > 100 µM (inactive)
GI50 [30]: > 100 µM (inactive)
GI50 [31]: > 100 µM (inactive)
GI50 [32]: > 100 µM (inactive)
GI50 [33]: > 100 µM (inactive)
GI50 [34]: 6.53 µM (inactive)
GI50 [35]: > 100 µM (inactive)
GI50 [36]: 94.6 µM (inactive)
GI50 [37]: > 100 µM (inactive)
GI50 [38]: 56.2 µM (inactive)
GI50 [39]: 87.9 µM (inactive)
GI50 [40]: 47.4 µM (inactive)
GI50 [41]: > 100 µM (inactive)
GI50 [42]: 42.5 µM (inactive)
GI50 [43]: 43.8 µM (inactive)
GI50 [44]: > 100 µM (inactive)
GI50 [45]: 43.9 µM (inactive)
GI50 [46]: 43.1 µM (inactive)
GI50 [47]: > 100 µM (inactive)
GI50 [48]: 46.7 µM (inactive)
GI50 [57]: > 100 µM (inactive)
GI50 [50]: > 100 µM (inactive)
GI50 [51]: > 100 µM (inactive)
GI50 [58]: 41.4 µM (inactive)
GI50 [52]: 28.9 µM (inactive)
GI50 [59]: 29.1 µM (inactive)
GI50 [53]: 79.1 µM (inactive)
GI50 [54]: > 100 µM (inactive)
